The results in this text go back to ChEMBL document CHEMBL1201862, “PubChem BioAssay data set” (2004).

Some test systems named below: OVCAR-5; LOX IMVI; MOLT-4; HOP-62; A498; SNB-75; K562; UACC-257; HCT-15; 786-0; NCI-H522; RPMI-8226; NCI/ADR-RES; NCI-H23; Hs-578T; HT-29; U-251; SK-MEL-2; NCI-H460; SK-MEL-28.
What all share (test): NCI tumour cell line growth inhibition, 48 h

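Grown in 96-well plates, cells were treated for 48 hours with each compound at five concentrations. Insufficient inhibition: endpoint recorded as highest concentration tested. GI50 marks 50% less growth.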 Activity calls are given as the source filed them. No stated cut-off is given here; in the data, active = GI50 up to about 1.1 µM and inactive = higher.

As for `COC(=O)C1=C(N)C2=C(N)Oc3ccccc3C2CC1=C(C#N)C#N` (stereo not given), the GI50 with OVCAR-5 was 27.9 µM (inactive); in the assay on LOX IMVI, 18.8 µM (inactive); with MOLT-4, 33.4 µM (inactive); in the assay with HOP-62 it was 33.5 µM (inactive); with A498, 25.8 µM (inactive); in the assay with SNB-75 it was 18 µM (inactive). The GI50 was 19.6 µM (inactive) in the assay on K562; 34.7 µM (inactive) in the assay on UACC-257; 17.2 µM with HCT-15; 30.9 µM (inactive) in the assay with 786-0; 15.8 µM (inactive) with NCI-H522; 19.1 µM (inactive) in the assay on RPMI-8226. The GI50 with NCI/ADR-RES is 20.2 µM (inactive); with NCI-H23 it was 19.6 µM (inactive); with Hs-578T, 27.9 µM (inactive); with HT-29 it was 26.2 µM (inactive); in the assay with U-251 it was 35.5 µM (inactive); with SK-MEL-2, 25.9 µM (inactive).

`CC1=NN(c2nc(N)nc(-c3sccc3N)n2)C(C)(C)C1`: the GI50 in the assay on OVCAR-5 is > 100 µM (inactive); in the assay on LOX IMVI, 90.4 µM (inactive); with MOLT-4, 83.9 µM (inactive); in the assay on HOP-62, > 100 µM (inactive); in the assay with A498, > 100 µM (inactive); in the assay on SNB-75, 36.3 µM (inactive). Further, the GI50 is 44.1 µM (inactive) with K562; > 100 µM (inactive) with UACC-257; 59.4 µM in the assay on HCT-15; 81.1 µM (inactive) in the assay with NCI-H460; > 100 µM (inactive) in the assay with 786-0; 40.2 µM (inactive) with SK-MEL-28. Besides, the GI50 in the assay with NCI-H522 was 32.7 µM (inactive); in the assay on RPMI-8226, 31.8 µM (inactive); in the assay on NCI/ADR-RES it was 37.1 µM (inactive); in the assay on NCI-H23, 64.9 µM (inactive); in the assay on Hs-578T, 89.3 µM (inactive); in the assay with HT-29, > 100 µM (inactive). In addition, the GI50 with U-251 is > 100 µM (inactive).

Consider `COc1ccc(/C=C2\N=C3NC(=O)C(N4CCOCC4)=C(N)N3C2=O)cc1`, for which the GI50 in the assay with OVCAR-5 is > 100 µM (inactive); in the assay with LOX IMVI, > 100 µM (inactive); in the assay on MOLT-4, > 100 µM (inactive); in the assay with A498 it was > 100 µM (inactive); in the assay on SNB-75, 24.8 µM (inactive); with K562, 6.7 µM (inactive). Moreover, the GI50 was > 100 µM (inactive) with UACC-257; greater than 100 µM in the assay on HCT-15; 53 µM (inactive) in the assay on 786-0; > 100 µM (inactive) in the assay on SK-MEL-28; 75.3 µM (inactive) with NCI-H522; > 100 µM (inactive) in the assay with RPMI-8226. The GI50 is > 100 µM (inactive) with NCI/ADR-RES; > 100 µM (inactive) in the assay with NCI-H23; 35.7 µM (inactive) in the assay on Hs-578T; > 100 µM (inactive) in the assay on HT-29; 53.7 µM (inactive) in the assay on U-251.

For `Cc1c(F)c(NC(=O)CN(C)C)c2c(=O)cc(-c3ccc(NC(=O)CN(C)C)c(F)c3)oc2c1F`, the GI50 with OVCAR-5 is 22.8 µM (inactive); in the assay with LOX IMVI, 14.9 µM (inactive); with MOLT-4, 11.2 µM (inactive); with HOP-62, 16.6 µM (inactive); in the assay with A498, 1.35 µM (inactive); in the assay on K562, 13.6 µM (inactive). Besides, the GI50 was 21.9 µM (inactive) with UACC-257; 14.5 µM in the assay with HCT-15; 9.35 µM (inactive) with NCI-H460; 15.9 µM (inactive) in the assay on 786-0; 21.5 µM (inactive) with SK-MEL-28; 17.5 µM (inactive) in the assay with NCI-H522. The GI50 was 16.8 µM (inactive) with RPMI-8226; 14.8 µM (inactive) in the assay on NCI/ADR-RES; 17.3 µM (inactive) in the assay on NCI-H23; 26.9 µM (inactive) with Hs-578T; 14.6 µM (inactive) in the assay on HT-29; 14.2 µM (inactive) in the assay on U-251. Further, the GI50 in the assay on SK-MEL-2 is 19.2 µM (inactive).

Consider `C=CCN1C(=O)/C(=C\c2cc(C(C)(C)C)c(O)c(C(C)(C)C)c2)NC1=S`, for which the GI50 in the assay on OVCAR-5 was 31.3 µM (inactive); in the assay on LOX IMVI, 16.4 µM (inactive); in the assay on MOLT-4, 30.7 µM (inactive); with HOP-62 it was 20.9 µM (inactive); in the assay on A498, 25.2 µM (inactive); with K562, 19.9 µM (inactive). The GI50 in the assay on UACC-257 is 15.6 µM (inactive); in the assay on HCT-15 it was 22.2 µM; in the assay on NCI-H460, 15.3 µM (inactive); in the assay on 786-0, 20.8 µM (inactive); with SK-MEL-28 it was 30.6 µM (inactive); in the assay with NCI-H522, 12.4 µM (inactive). Further, the GI50 was 7.87 µM (inactive) with RPMI-8226; 23.9 µM (inactive) with NCI/ADR-RES; 21.2 µM (inactive) in the assay with NCI-H23; 48.2 µM (inactive) with Hs-578T; 17.3 µM (inactive) with HT-29; 14.3 µM (inactive) with U-251. For the same compound, the GI50 in the assay on SK-MEL-2 was 14.1 µM (inactive).

Regarding `COC(=O)C1C/C(=C/N(C)C)C(=S)N1` (stereo not given), the GI50 in the assay with OVCAR-5, in the assay with MOLT-4, in the assay with HOP-62, in the assay on A498, in the assay on SNB-75 and in the assay on K562 was > 100 µM (inactive) throughout. Moreover, the GI50 in the assay on UACC-257 is > 100 µM (inactive); with HCT-15, greater than 100 µM; in the assay with NCI-H460 it was 11.6 µM (inactive); with 786-0 it was > 100 µM (inactive); in the assay on SK-MEL-28, > 100 µM (inactive); in the assay on NCI-H522, > 100 µM (inactive). Also, the GI50 in the assay on RPMI-8226, in the assay with NCI/ADR-RES, in the assay with NCI-H23, with Hs-578T, in the assay with HT-29 and in the assay on U-251 was > 100 µM (inactive) throughout. Besides, in the assay on SK-MEL-2, the GI50 was > 100 µM (inactive).

For the compound `CN1CCN(Cn2nc(COc3ccccc3Cl)n(/N=C/c3ccc(-c4ccc(Cl)cc4Cl)o3)c2=S)CC1`, the GI50 was 35.6 µM (inactive) in the assay with OVCAR-5; 33.4 µM (inactive) with LOX IMVI; 24.5 µM (inactive) in the assay on MOLT-4; 21.4 µM (inactive) with HOP-62; 19.1 µM (inactive) in the assay with A498; 21.3 µM (inactive) in the assay with K562. Besides, the GI50 in the assay with UACC-257 is 34.8 µM (inactive); in the assay with HCT-15, 24.2 µM; in the assay with NCI-H460, 22.1 µM (inactive); in the assay on 786-0 it was 18.6 µM (inactive); with SK-MEL-28, 60.5 µM (inactive); in the assay on NCI-H522 it was 26.2 µM (inactive). The GI50 was 29.2 µM (inactive) in the assay on RPMI-8226; 21.7 µM (inactive) in the assay with NCI/ADR-RES; 17.9 µM (inactive) with NCI-H23; 84.1 µM (inactive) in the assay with Hs-578T; 19.5 µM (inactive) in the assay on HT-29; 19.3 µM (inactive) in the assay on U-251. Moreover, the GI50 in the assay with SK-MEL-2 is 22.4 µM (inactive).

For the compound `CC(=O)Nc1ccc2c(c1)/C(=N/c1ccc(C(=O)O)cc1)c1ccccc1-2`, the GI50 is > 100 µM (inactive) with OVCAR-5; 50.9 µM (inactive) with LOX IMVI; 32.1 µM (inactive) in the assay on MOLT-4; 86.1 µM (inactive) in the assay with HOP-62; > 100 µM (inactive) in the assay with A498; 63.1 µM (inactive) in the assay on K562. The GI50 in the assay with UACC-257 was > 100 µM (inactive); in the assay with HCT-15, 43.9 µM; in the assay with NCI-H460 it was 44.7 µM (inactive); in the assay on 786-0, > 100 µM (inactive); with SK-MEL-28, > 100 µM (inactive); with NCI-H522 it was 70 µM (inactive). In addition, the GI50 is 36 µM (inactive) in the assay with RPMI-8226; 95.1 µM (inactive) in the assay on NCI/ADR-RES; > 100 µM (inactive) in the assay on NCI-H23; 92.7 µM (inactive) in the assay with Hs-578T; 59.6 µM (inactive) in the assay on HT-29; > 100 µM (inactive) in the assay on U-251.

On to `CCOC(=O)/C(C(=S)NCc1ccccc1)=C(/N)N1CCCC1`, for which the GI50 in the assay with OVCAR-5, in the assay with LOX IMVI, in the assay on MOLT-4, in the assay with HOP-62, with A498 and with K562 was > 100 µM (inactive) in each case. The GI50 is > 100 µM (inactive) with UACC-257; greater than 100 µM in the assay with HCT-15; > 100 µM (inactive) with NCI-H460; > 100 µM (inactive) with 786-0; > 100 µM (inactive) in the assay with SK-MEL-28; > 100 µM (inactive) in the assay on NCI-H522. In addition, the GI50 in the assay on RPMI-8226, in the assay with NCI/ADR-RES, with NCI-H23, with Hs-578T, in the assay on HT-29 and with U-251 was > 100 µM (inactive) throughout. Further, the GI50 in the assay with SK-MEL-2 was > 100 µM (inactive).

Turning to `COCCOC(C)C(=O)C(O)S(=O)(=O)O` (stereo not given), the GI50 in the assay with OVCAR-5, in the assay with MOLT-4, in the assay with HOP-62, with A498, in the assay with SNB-75 and with K562 was > 100 µM (inactive) in each case. The GI50 was > 100 µM (inactive) in the assay with UACC-257; greater than 100 µM with HCT-15; > 100 µM (inactive) in the assay with NCI-H460; > 100 µM (inactive) in the assay with 786-0; > 100 µM (inactive) with SK-MEL-28; > 100 µM (inactive) in the assay with NCI-H522. In addition, the GI50 with RPMI-8226, in the assay with NCI/ADR-RES, in the assay on NCI-H23, in the assay with Hs-578T, in the assay on HT-29 and in the assay with U-251 was > 100 µM (inactive) throughout. In the assay with SK-MEL-2, the GI50 was > 100 µM (inactive).

For `CCOC(=O)c1nc2ccccc2nc1NCc1ccc(Cl)cc1Cl`, the GI50 in the assay on OVCAR-5 was > 100 µM (inactive); in the assay with LOX IMVI it was > 100 µM (inactive); in the assay on MOLT-4, > 100 µM (inactive); in the assay on HOP-62, > 100 µM (inactive); in the assay on A498, > 100 µM (inactive); in the assay on SNB-75, 23.6 µM (inactive). The GI50 is > 100 µM (inactive) with K562; > 100 µM (inactive) in the assay with UACC-257; greater than 100 µM with HCT-15; 35 µM (inactive) in the assay with NCI-H460; > 100 µM (inactive) in the assay with 786-0; > 100 µM (inactive) in the assay with NCI-H522. Also, the GI50 in the assay with RPMI-8226 was > 100 µM (inactive); in the assay with NCI/ADR-RES, > 100 µM (inactive); in the assay on NCI-H23, > 100 µM (inactive); in the assay with Hs-578T, 65.6 µM (inactive); with HT-29, > 100 µM (inactive); in the assay with U-251, > 100 µM (inactive). Also, in the assay with SK-MEL-2, the GI50 was > 100 µM (inactive).
